{"source": "patent EP4692114A1", "about": "“CALCITONIN ANALOGUE, AND DERIVATIVE THEREOF AND USE THEREOF” (Hangzhou Sciwind Biosciences Co., Ltd., priority 2023, dated 2024)", "key": {"[1]": {"settings": "background statement; cited from earlier work"}, "human amylin receptors": {"target": "T1, human amylin receptors (Homo sapiens, UniProt O60896+P30988)", "T1 sequence (P30988 25-474)": "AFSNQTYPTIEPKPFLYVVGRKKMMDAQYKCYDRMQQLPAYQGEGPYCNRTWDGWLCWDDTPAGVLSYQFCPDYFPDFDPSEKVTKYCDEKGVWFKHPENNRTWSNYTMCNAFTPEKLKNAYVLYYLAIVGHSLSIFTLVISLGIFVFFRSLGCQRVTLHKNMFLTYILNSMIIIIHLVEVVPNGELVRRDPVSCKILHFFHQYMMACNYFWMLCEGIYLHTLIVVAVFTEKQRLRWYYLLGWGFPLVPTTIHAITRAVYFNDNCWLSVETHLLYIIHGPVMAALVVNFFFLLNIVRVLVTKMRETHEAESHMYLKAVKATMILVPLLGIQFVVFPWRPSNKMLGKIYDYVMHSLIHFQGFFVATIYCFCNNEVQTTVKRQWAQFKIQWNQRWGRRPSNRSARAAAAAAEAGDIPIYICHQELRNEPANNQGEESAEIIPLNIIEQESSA", "T1 sequence (O60896 24-148 partner)": "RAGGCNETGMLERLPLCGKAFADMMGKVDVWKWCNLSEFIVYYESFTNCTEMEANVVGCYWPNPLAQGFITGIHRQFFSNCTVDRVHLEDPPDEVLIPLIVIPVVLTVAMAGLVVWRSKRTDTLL", "assay": "Luciferase assay of amylin (amylin receptor/CRE-luc cell line);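 further: agonist potency from luminescence of cAMP response element-driven luciferase, EC50 derived from a standard curve of signal versus compound concentration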", "assay_type": "cell-based", "settings": "stably transfected amylin receptor/CRE-luc CHO cells (CHO-K1/Gal5/AMY3), 24 hours incubation, luciferase readout"}, "[2]": {"assay": "Heat accelerated stability assay under a neutral condition", "assay_type": "physicochemical", "settings": "pH about 7.4, 40°C", "summary_of_the_method": "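Peptide (1 mg/mL) with sodium dihydrogen phosphate (1.42 mg/mL) in water, pH ~7.4, was sterile-filtered and stored at 40 °C, sampled on days 7 and 26. After centrifugation, concentration and purity (target/total peak area) were measured by reversed-phase HPLC at 214 and 280 nm, water/0.05% TFA to acetonitrile gradient, 25 °C column.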"}, "[3]": {"assay": "Heat accelerated stability assay for compatibility testing (M8 with M51)", "assay_type": "physicochemical", "settings": "M8 1 mg/ml with M51 1 mg/ml, pH about 7.4, one-month heat accelerated assay, without and with excipients (phenol, 1,2-dihydroxypropane)", "procedure": "The calcitonin analogue M8 (1 mg/ml), the GLP-1 receptor agonist M51 (1 mg/ml), and sodium dihydrogen phosphate (1.42 mg/ml) were mixed and dissolved in ultrapure water, and 5.5 mg/ml phenol and 14 mg/ml 1,2-dihydroxypropane were further added for the testing group with excipients. After pH was adjusted to about 7.4 with hydrochloric acid/sodium hydroxide, accelerated stability assays were performed according to the method of Example 3. […] Thus, they had the potential to be developed as a co-formulation."}, "[4]": {"assay": "Study of weight change and food consumption in rats", "assay_type": "in vivo, SD (Sprague Dawley) rats", "settings": "SD rats, subcutaneous, 10 nmol/kg", "excerpt": "SD (Sprague Dawley) rats weighing 200-250 g were used for this study. The rats were received at least 10-14 days before the study began such that they could accommodate to the experimental environment. After arrival, they were exposed to a reversed light/dark cycle (i.e., lights switched off in daytime and on in nighttime) for two weeks and were individually housed for the first week so as to ensure high data accuracy and test sensitivity. Throughout the acclimation and experiment period, the rats had free access to food and water. 5-8 rats were assigned to each testing group for the derivatives and were subcutaneously administered the derivatives at a dose of 10 nmol/kg or a vehicle, and the dosing timepoint was recorded for each group. After dosing, the rats were put back into cages where they were housed and could have access to food and water. Food consumption and weight change of the rats were recorded online or manually every 24 hours."}}, "note": "*1 amine or outer side, *2 acyl side, *3 side chain or, on linkers, in order; H or OH if unused. Where a SMILES comes first, the peptide text is derived from it. The star is where a group is joined. C20 diacid = O=C(O)CCCCCCCCCCCCCCCCCCC(=O)*; γGlu = O=C(O)[C@H](CCC(=O)[*:2])N[*:1]"}
{"smiles": "CC(C)C[C@H](NC(=O)[C@H](CCCCN)NC(=O)CNC(=O)[C@H](CC(C)C)NC(=O)[C@@H](NC(=O)[C@@H]1CSSC[C@H](N)C(=O)N[C@@H](CO)C(=O)N[C@@H](CC(N)=O)C(=O)N[C@@H](CC(C)C)C(=O)N[C@@H](CO)C(=O)N[C@@H]([C@@H](C)O)C(=O)N1)C(C)C)C(=O)N[C@@H](CO)C(=O)N[C@@H](CCC(N)=O)C(=O)N[C@@H](CCC(=O)O)C(=O)N[C@@H](CC(C)C)C(=O)N[C@@H](Cc1c[nH]cn1)C(=O)N[C@@H](CCCCN)C(=O)N[C@@H](CC(C)C)C(=O)N[C@@H](CCC(N)=O)C(=O)N[C@H](C(=O)N[C@@H](Cc1ccc(O)cc1)C(=O)N1CCC[C@H]1C(=O)N[C@@H](CCCNC(=N)N)C(=O)N[C@H](C(=O)N[C@@H](CC(N)=O)C(=O)N[C@H](C(=O)NCC(=O)N[C@@H](CO)C(=O)NCC(=O)N[C@H](C(=O)N1CCC[C@H]1C(N)=O)[C@@H](C)O)[C@@H](C)O)[C@@H](C)O)[C@@H](C)O", "note": "[D2, salmon calcitonin]", "values": [{"measurement": "half-life", "setting": "[1]", "value": "less than two hours"}]}
{"smiles": "CC(C)C[C@H](NC(=O)[C@H](CCCNC(=N)N)NC(=O)CNC(=O)[C@H](CC(C)C)NC(=O)[C@@H](NC(=O)[C@H](C)NC(=O)[C@@H](NC(=O)[C@H](CO)NC(=O)[C@H](CC(C)C)NC(=O)[C@H](CCC(N)=O)NC(=O)[C@H](CO)NC(=O)[C@H](C)NC(=O)CC[C@H](NC(=O)CCCCCCCCCCCCCCCCCCC(=O)O)C(=O)O)[C@@H](C)O)C(C)C)C(=O)N[C@@H](CO)C(=O)N[C@@H](CC(=O)O)C(=O)N[C@@H](CCC(=O)O)C(=O)N[C@@H](CC(C)C)C(=O)N[C@@H](Cc1c[nH]cn1)C(=O)N[C@@H](CCCNC(=N)N)C(=O)N[C@@H](CC(C)C)C(=O)N[C@@H](CCC(N)=O)C(=O)N[C@@H](CC(=O)O)C(=O)N[C@@H](Cc1ccc(O)cc1)C(=O)N1CCC[C@H]1C(=O)N[C@@H](CCCNC(=N)N)C(=O)N[C@H](C(=O)N[C@@H](CC(=O)O)C(=O)N[C@H](C(=O)NCC(=O)N[C@@H](CO)C(=O)NCC(=O)N[C@@H](CO)C(=O)N1CCC[C@H]1C(N)=O)C(C)C)[C@@H](C)O", "note": "[M8] ({C20 diacid-γGlu}-ASQLSTAVLGRLSDELHRLQDYPRTDVGSGSP-NH2)", "values": [{"measurement": "EC50", "setting": "human amylin receptors", "value": 0.017, "unit": "nM"}, {"measurement": "Changes in characteristics or properties, 0d", "setting": "[2]; 1 mg/mL, phosphate, 0d", "value": "Clear"}, {"measurement": "Changes in characteristics or properties, 7d", "setting": "[2]; 1 mg/mL, phosphate, 7d", "value": "Clear"}, {"measurement": "Characteristics or properties on Day 26", "setting": "[2]; 1 mg/mL, phosphate, Day 26", "value": "clear solution"}, {"measurement": "Reversed phase chromatography 7d change", "setting": "[2]; Table 8, purity change, 7d", "value": "No change (a decrease of less than 1% from the initial value to the detected content is denoted as \"no change\")"}, {"measurement": "Reversed phase chromatography 26d change", "setting": "[2]; Table 8, purity change, 26d", "value": -0.12, "unit": "%"}, {"measurement": "Concentration change on Day 26 as compared to Day 0", "setting": "[2]; Day 26 vs Day 0", "value": "less than 2%"}, {"measurement": "Purity Change% (7d-0d)", "setting": "[2]; purity from reversed phase chromatography-214 nm, Day 7 vs Day 0", "value": "No change (a decrease of less than 1% from the initial value to the detected content is denoted as \"no change\")"}, {"measurement": "Change in the spectra of reversed phase chromatography (compatibility)", "setting": "[3]", "value": "only a little change"}, {"measurement": "Effect on reducing food intake", "setting": "[4]; accumulated food intake recorded every 24 hours (FIGs. 7 and 9)", "value": "prominent effect"}, {"measurement": "Effect on reducing body weight", "setting": "[4]; recorded every 24 hours (FIGs. 6 and 8)", "value": "prominent effect"}]}
